Results from US11035858B2, “Methods of isolating barrel-like proteases and identifying peptides processed thereby” (Yeda Research and Development Co. Ltd., priority 2016, dated 2021).
Residues, ends and D or L forms follow the SMILES beside them. *: point of attachment. Cbz = O=C(OCc1ccccc1)*

Biological target: T1, Purified proteasomes (Homo sapiens, UniProt P28074)
T1 construct: using this protocol active proteasomes are efficiently isolated from cells; endogenous in cells; immunoprecipitated with anti-α6 antibodies
Assay: Proteasome activity-based assay with fluorogenic Suc-LLVY-Amc substrate
Format: biochemical
Details: fluorescent LLVY peptide substrate; FIG. 2
Method: Proteasome Activity-Based Assay.
Purified proteasomes were incubated with the fluorogenic substrate peptide Suc-LLVY-Amc (100 μM) in a reaction mixture containing 50 mM Hepes, pH 7.5, 1 mM DTT, 5 mM MgCl2, and 2 mM ATP. fluorescence of cleaved Amc was measured (excitation, 360 nm; emission, 470 nm).
A unique system of ‘Proteasomal Profiling’ was developed for the isolation of the active-degradome from the cell by purifying the proteasomal peptide pool, which represents proteins actively undergoing degradation at the time of experiment (FIG. 1). Proteasomal complexes were purified by immunoprecipitation using specific antibodies against the α6 subunit of the 20S core particle. To examine whether the catalytic activity of the proteasomes is retained during the purification procedures, an activity-based assay was performed using a fluorescent LLVY peptide substrate.

## CC(C)C[C@@H](C=O)NC(=O)[C@H](CC(C)C)NC(=O)[C@H](CC(C)C)NC(=O)OCc1ccccc1 [MG132] (Cbz-Leu-Leu-Leu-aldehyde)
  degradation of the LLVY substrate by purified proteasomes: sensitive
